Assay results: ChEMBL document CHEMBL1127396, “Adenosine deaminase inhibitors. Synthesis and biological evaluation of putative metabolites of (+)-erythro-9-(2S-hydroxy-3R-nonyl)adenine” (J Med Chem, 1994)

Biological target: T1, Adenosine deaminase (Bos taurus, UniProt P56658)
T1 sequence (P56658 whole entry): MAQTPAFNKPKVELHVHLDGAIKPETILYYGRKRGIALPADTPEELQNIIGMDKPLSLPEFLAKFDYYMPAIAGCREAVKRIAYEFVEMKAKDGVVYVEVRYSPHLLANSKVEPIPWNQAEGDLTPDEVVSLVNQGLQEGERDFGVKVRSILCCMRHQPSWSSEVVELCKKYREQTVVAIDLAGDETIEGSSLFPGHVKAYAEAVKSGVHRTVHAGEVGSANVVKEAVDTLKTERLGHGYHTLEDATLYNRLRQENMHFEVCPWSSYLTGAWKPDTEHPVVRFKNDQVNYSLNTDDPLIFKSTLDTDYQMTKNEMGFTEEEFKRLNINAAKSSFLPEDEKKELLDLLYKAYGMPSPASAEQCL
Experiment: Tested for binding affinity against calf intestinal Adenosine Deaminase (ADA)

SMILES	Ki [nM]
CCCCCC[C@H]([C@H](C)O)n1c(O)nc2c(N)ncnc21	6.4
CCCCCC[C@H]([C@H](C)O)n1cnc2c(N)ncnc21 [(+)-EHNA]	0.82
CCCCCC[C@H]([C@H](C)O)[N+]1([O-])C(=O)Nc2c(N)ncnc21 (some centres undefined)	15.8
CCCCCC[C@H]([C@H](C)O)[N+]1([O-])C=Nc2c(N)ncnc21 (some centres undefined)	3.8
